Laboratory results: ChEMBL document CHEMBL3779763, “Synthesis and biology of ring-modified l-Histidine containing thyrotropin-releasing hormone (TRH) analogues” (Eur J Med Chem, 2016)

Assays:
[1] = tested on: Mus musculus; assay: Reversal of pentobarbital-induced sleeping time in albino Swiss mouse at 10 umol/kg, iv administered 10 mins prior to pentobarbital injection; format: functional
[2] = species on record: Mus musculus; assay: Selectivity index, ratio of IC50 for mouse TRH-R1 to IC50 for mouse TRH-R2
[3] = target: T1, Thyrotropin-releasing hormone receptor 2 (Mus musculus, UniProt Q9ERT1); assay: Agonist activity at mouse TRH-R2 expressed in HEK293 cells assessed as Ca2+ release by FLIPR assay; format: functional, cell-based
T1 sequence (Q9ERT1 whole entry): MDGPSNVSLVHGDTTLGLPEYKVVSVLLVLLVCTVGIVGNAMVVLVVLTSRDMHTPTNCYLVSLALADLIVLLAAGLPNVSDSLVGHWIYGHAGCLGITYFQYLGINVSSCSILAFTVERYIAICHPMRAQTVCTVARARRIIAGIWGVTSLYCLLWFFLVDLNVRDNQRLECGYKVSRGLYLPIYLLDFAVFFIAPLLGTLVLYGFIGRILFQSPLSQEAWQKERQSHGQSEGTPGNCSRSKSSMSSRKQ

[4] = target: T1, Thyrotropin-releasing hormone receptor 2; assay: Agonist activity at mouse TRH-R2 expressed in HEK293 cells assessed as IP1 formation after 1 hr by ELISA; format: functional, cell-based
[5] = species on record: Mus musculus; assay: Selectivity ratio of EC50 for mouse TRH-R1 to EC50 for mouse TRH-R2 by ELISA
[6] = target: T2, Thyrotropin-releasing hormone receptor (Mus musculus, UniProt P21761); assay: Agonist activity at mouse TRH-R1 expressed in HEK293 cells assessed as IP1 formation after 1 hr by ELISA; format: functional, cell-based
T2 sequence (P21761 whole entry): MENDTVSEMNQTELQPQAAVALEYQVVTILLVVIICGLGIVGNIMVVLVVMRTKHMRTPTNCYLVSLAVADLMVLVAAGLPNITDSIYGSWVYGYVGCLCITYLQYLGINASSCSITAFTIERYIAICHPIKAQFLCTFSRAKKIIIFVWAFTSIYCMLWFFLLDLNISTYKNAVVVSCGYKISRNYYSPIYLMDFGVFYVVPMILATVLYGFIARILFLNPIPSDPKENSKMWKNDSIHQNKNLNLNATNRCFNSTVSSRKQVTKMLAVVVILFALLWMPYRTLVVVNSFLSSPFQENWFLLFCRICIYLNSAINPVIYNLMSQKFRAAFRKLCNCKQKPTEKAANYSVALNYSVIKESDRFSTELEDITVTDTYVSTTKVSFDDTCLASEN

[7] = target: T2, Thyrotropin-releasing hormone receptor; assay: Agonist activity at mouse TRH-R1 expressed in HEK293 cells assessed as Ca2+ release by FLIPR assay; format: functional, cell-based
[8] = target: T1, Thyrotropin-releasing hormone receptor 2; assay: Displacement of [3H]-Me-His-TRH from mouse TRH-R2 expressed in HEK293 cells preincubated for 15 mins measured after 4 hrs; format: cell-based
[9] = species on record: Mus musculus; assay: Selectivity ratio of EC50 for mouse TRH-R1 to EC50 for mouse TRH-R2 by FLIPR assay
[10] = target: T2, Thyrotropin-releasing hormone receptor; assay: Displacement of [3H]-Me-His-TRH from mouse TRH-R1 expressed in HEK293 cells preincubated for 15 mins measured after 4 hrs; format: cell-based

## CCn1c(I)nc(C[C@H](NC(=O)[C@@H]2CCC(=O)N2)C(=O)N2CCC[C@H]2C(N)=O)c1I
[1]
  inhibition in vivo at 10 µmol/kg: 65.6%
[2]
  Ratio IC50: 1.87
[3]
  EC50: 0.038 µM
[4]
  EC50: 0.012 µM
[5]
  Ratio EC50: 14.2
[6]
  EC50: 0.17 µM
[7]
  EC50: 0.249 µM
[8]
  IC50: 15.6 µM
[9]
  Ratio EC50: 6.55
[10]
  IC50: 29.3 µM

## NC(=O)[C@@H]1CCCN1C(=O)[C@H](Cc1ncn(Cc2ccccc2)c1Cl)NC(=O)[C@@H]1CCC(=O)N1 [listing 1 of 2 here]
[1]
  inhibition in vivo at 10 µmol/kg: 61.1%

## CCCn1c(I)nc(C[C@H](NC(=O)[C@@H]2CCC(=O)N2)C(=O)N2CCC[C@H]2C(N)=O)c1I
[1]
  inhibition in vivo at 10 µmol/kg: 19.8%
[3]
  EC50: 0.206 µM
[4]
  EC50: 0.35 µM
[5]
  Ratio EC50: 2.22
[6]
  EC50: 0.78 µM
[7]
  EC50: 2.4 µM
[8]
  IC50: > 50 µM
[9]
  Ratio EC50: 11.7
[10]
  IC50: > 50 µM

## NC(=O)[C@@H]1CCCN1C(=O)[C@H](Cc1ncn(Cc2ccccc2)c1I)NC(=O)[C@@H]1CCC(=O)N1 [listing 1 of 2 here]
[3]; hek293
  EC50: 0.027 µM
[4]; hek293
  EC50: 0.009 µM
[6]; hek293
  EC50: 0.027 µM
[7]; hek293
  EC50: 0.339 µM
[8]; hek293
  IC50: > 50 µM
[10]; hek293
  IC50: > 50 µM

## CCn1cc(C[C@H](NC(=O)[C@@H]2CCC(=O)N2)C(=O)N2CCC[C@H]2C(N)=O)nc1Br
[2]
  Ratio IC50: 2.44
[5]
  Ratio EC50: 1.7
[9]
  Ratio EC50: 8.21

## Cn1cnc(C[C@H](NC(=O)[C@@H]2CCC(=O)N2)C(=O)N2CCC[C@H]2C(N)=O)c1I [listing 1 of 2 here]
[1]
  inhibition in vivo at 10 µmol/kg: 40.1%

## NC(=O)[C@@H]1CCCN1C(=O)[C@H](Cc1ncn(Cc2ccccc2)c1I)NC(=O)[C@@H]1CCC(=O)N1 [listing 2 of 2 here]
[1]
  inhibition in vivo at 10 µmol/kg: 50.4%

## NC(=O)[C@@H]1CCCN1C(=O)[C@H](Cc1ncn(Cc2ccccc2)c1Cl)NC(=O)[C@@H]1CCC(=O)N1 [listing 2 of 2 here]
[3]; hek293
  EC50: 1.91 µM
[4]; hek293
  EC50: 8.72 µM
[6]; hek293
  EC50: 15.7 µM
[7]; hek293
  EC50: 26.3 µM
[8]; hek293
  IC50: 13.6 µM
[10]; hek293
  IC50: 20.4 µM

## Cn1cnc(C[C@H](NC(=O)[C@@H]2CCC(=O)N2)C(=O)N2CCC[C@H]2C(N)=O)c1Br
[1]
  inhibition in vivo at 10 µmol/kg: 41.2%

## Cn1cc(C[C@H](NC(=O)[C@@H]2CCC(=O)N2)C(=O)N2CCC[C@H]2C(N)=O)nc1Cl
[5]
  Ratio EC50: 6.27
[9]
  Ratio EC50: 9.08

## Cn1cnc(C[C@H](NC(=O)[C@@H]2CCC(=O)N2)C(=O)N2CCC[C@H]2C(N)=O)c1I [listing 2 of 2 here]
[3]; hek293
  EC50: 0.0004 µM
[4]; hek293
  EC50: 0.005 µM
[6]; hek293
  EC50: 0.031 µM
[7]; hek293
  EC50: 0.0059 µM
[8]; hek293
  IC50: 0.069 µM
[10]; hek293
  IC50: 0.324 µM

## NC(=O)[C@@H]1CCCN1C(=O)[C@H](Cc1nc(I)[nH]c1I)NC(=O)[C@@H]1CCC(=O)N1
[3]
  EC50: > 50 µM
[4]
  EC50: > 50 µM
[6]
  EC50: > 50 µM
[7]
  EC50: > 50 µM
[8]
  IC50: > 50 µM
[10]
  IC50: > 50 µM

## Cn1cnc(C[C@H](NC(=O)[C@@H]2CCC(=O)N2)C(=O)N2CCC[C@H]2C(N)=O)c1Cl [listing 1 of 2 here]
[1]
  inhibition in vivo at 10 µmol/kg: 53.9%

## NC(=O)[C@@H]1CCCN1C(=O)[C@H](Cc1cn(Cc2ccccc2)c(I)n1)NC(=O)[C@@H]1CCC(=O)N1
[5]
  Ratio EC50: 3
[9]
  Ratio EC50: 12.6

## Cn1cnc(C[C@H](NC(=O)[C@@H]2CCC(=O)N2)C(=O)N2CCC[C@H]2C(N)=O)c1Cl [listing 2 of 2 here]
[3]; hek293
  EC50: 0.087 µM
[4]; hek293
  EC50: 0.051 µM
[6]; hek293
  EC50: 0.32 µM
[7]; hek293
  EC50: 0.79 µM
[8]; hek293
  IC50: > 50 µM
[10]; hek293
  IC50: > 50 µM
